{"source": "patent US20210196672A1", "about": "“COMPOSITIONS COMPRISING 3'-O-METHYL-5-O-SULFATE EPICATECHIN AND THERAPEUTIC USES OF SUCH COMPOSITIONS” (NESTEC S.A., priority 2016, published 2021)", "system": "endothelial nitric oxide synthase", "assay": "eNOS phosphorylation level in isolated aortic rat rings (western blot)", "type": "cell-based", "conditions": "isolated thoracic aortic rings of male adult Wistar rats, 1 h incubation, relative to the control (DMSO 1%) and chemically similar epicatechins, FIG. 2", "experimental": "Comparative experiments were conducted on the expression of endothelial nitric oxide synthase in isolated aortic rat rings.\nThoracic aortas were obtained from male adults Wistar rats after euthanasia. Each aorta was carefully dissected and harvested cleaned of excess tissue and cut into three equal segments, approximately 7 mm long. All aortic rings were pre-incubated for 30 min in Krebs solution (20 mM Hepes buffer, pH 7.4, containing 119 mM NaCl, 4.7 mM KCl, 1 mM MgSO4, 0.4 mM NaH2PO4, 0.15 mM Na2HPO4, 5 mM NaHCO3, 1.25 mM CaCl2, 5.5 mM glucose) aerated with 95% 02 and 5% CO2 at 37° C. and then incubated with vehicle (DMSO 1%) or the different metabolites for 1 h. Metabolites were first dissolved in DMSO 1% and tested in a final concentration […]. At the end of the incubation period aortic rings were frozen at −70° C. until the homogenate preparation. Homogenates for western blot and western blot determinations were carried out by the regular procedures and phosphorylation level of endothelial nitric oxide synthase was evaluated."}
{"smiles": "COc1cc([C@H]2Oc3cc(O)cc(OS(=O)(=O)O)c3C[C@H]2O)ccc1O", "note": "[3′-O-methyl-5-O-sulfate epicatechin]", "values": [{"measurement": "eNOS phosphorylation", "result": "increased eNOS phosphorylation relative to the control and chemically similar epicatechins"}]}
